From patent US9890147B2 (BAYER PHARMA AKTIENGESELLSCHAFT, priority 2012, dated 2018)

Tests used:
[1] = target: T1, BRD4 (BD1) (Homo sapiens, UniProt O60885); assay: Binding assay BRD4/acetylated peptide H4 (TR-FRET protein-protein interaction assay)
T1 construct: with relatively long constructs also being possible, preferably amino acids 44-168; made in house; host or cells: E. coli
In short: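 His6-BRD4 BD1 (aa 67-152, E. coli), usually 10 nM, with biotinylated tetra-acetylated H4 peptide in HEPES pH 7.5 buffer; 11 compound concentrations 0.1 nM–20 μM in duplicate, 10 min preincubation, 1 h at 22 °C then ≥3 h at 4 °C. TR-FRET 665/620 ratio; IC50 by 4-parameter fit.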

[2] = tested on: MOLM-13 cells; assay: Cell proliferation assay (alamarBlue), MOLM-13; format: cell-based; details: Homo sapiens, 96 hours incubation, inhibition of cell proliferation
In short: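 Cells in RPMI1640/10% FCS read by alamarBlue fluorescence (ex 530, em 590 nm) after overnight 37 °C incubation, then treated at 1E-5 to 1E-8 M for 96 h. Pre-treatment values subtracted from endpoint values and compared with buffer-only wells; IC50 is 50% proliferation inhibition.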

| Compound | IC50 [1] | IC50 [2] |
| --- | --- | --- |
| CNC(=O)N1N=C(c2ccc(-c3ccccc3C)cc2)c2cc(OC)c(OC)cc2CC1C (racemic) [Example 72, (±)-7,8-dimethoxy-N,4-dimethyl-1-(2′-methylbiphenyl-4-yl)-4,5-dihydro-3H-2,3-benzodiazepine-3-carboxamide] | 210 nM | 660 nM |
| CNC(=O)N1N=C(c2ccc(-c3ccc(Cl)cc3Cl)cc2)c2cc(OC)c(OC)cc2CC1C (racemic) [Example 61, (±)-1-(2′,4′-dichlorobiphenyl-4-yl)-7,8-dimethoxy-N,4-dimethyl-4,5-dihydro-3H-2,3-benzodiazepine-3-carboxamide] | 570 nM | 2110 nM |
| CNC(=O)N1N=C(c2ccc(-c3nnc(C)o3)cc2)c2cc(OC)c(OC)cc2CC1C (racemic) [Example 247, (±)-7,8-Dimethoxy-N,4-dimethyl-1-[4-(5-methyl-1,3,4-oxadiazol-2-yl)phenyl]-4,5-dihydro-3H-2,3-benzodiazepine-3-carboxamide] | 190 nM | 570 nM |
| CNC(=O)N1N=C(c2ccc(-c3nc(C)no3)cc2)c2cc(OC)c(OC)cc2CC1C (racemic) [Example 248, (±)-7,8-Dimethoxy-N,4-dimethyl-1-[4-(3-methyl-1,2,4-oxadiazol-5-yl)phenyl]-4,5-dihydro-3H-2,3-benzodiazepine-3-carboxamide] | 190 nM | 140 nM |
| CNC(=O)N1N=C(c2ccc(-n3nc(C)nc3C)cc2)c2cc(OC)c(OC)cc2CC1C (racemic) [Example 154, (±)-1-[4-(3,5-dimethyl-1H-1,2,4-triazol-1-yl)phenyl]-7,8-dimethoxy-N,4-dimethyl-4,5-dihydro-3H-2,3-benzodiazepine-3-carboxamide] | 170 nM | 2080 nM |
| CNC(=O)N1N=C(c2ccc(-c3c(C)noc3C)cc2)c2cc(C(C)(C)C)ccc2CC1C (racemic) [Example 155, (±)-8-tert-Butyl-1-[4-(3,5-dimethylisoxazol-4-yl)phenyl]-N,4-dimethyl-4,5-dihydro-3H-2,3-benzodiazepine-3-carboxamide] | 40 nM | 380 nM |
| CNC(=O)N1N=C(c2ccc(-c3cccc(C#N)c3)cc2)c2cc(OC)c(OC)cc2CC1C (racemic) [Example 105, (±)-1-(3′-cyanobiphenyl-4-yl)-7,8-dimethoxy-N,4-dimethyl-4,5-dihydro-3H-2,3-benzodiazepine-3-carboxamide] | 80 nM | 670 nM |
| CNC(=O)N1N=C(c2ccc(-c3ccc(F)c(C#N)c3)cc2)c2cc(OC)c(OC)cc2CC1C (racemic) [Example 75, (±)-1-(3′-cyano-4′-fluorobiphenyl-4-yl)-7,8-dimethoxy-N,4-dimethyl-4,5-dihydro-3H-2,3-benzodiazepine-3-carboxamide] | 130 nM | 660 nM |
| CNC(=O)N1N=C(c2ccc(-c3ccccc3OC)cc2)c2cc(OC)c(OC)cc2CC1C (racemic) [Example 90, (±)-7,8-dimethoxy-1-(2′-methoxybiphenyl-4-yl)-N,4-40dimethyl-4,5-dihydro-3H-2,3-benzodiazepine-3-carboxamide] | 70 nM | 460 nM |
| CNC(=O)N1N=C(c2ccc(-c3ccccc3S(C)(=O)=O)cc2)c2cc(OC)c(OC)cc2CC1C (racemic) [Example 69, (±)-7,8-dimethoxy-N,4-dimethyl-1-[2′-(methylsulphonyl)biphenyl-4-yl]-4,5-dihydro-3H-2,3-benzodiazepine-3-carboxamide] | 130 nM | 1210 nM |
| CNC(=O)N1N=C(c2ccc(Cl)cc2)c2ccc(N3CCOC3=O)cc2CC1C (racemic) [Example 230, (±)-1-(4-chlorophenyl)-N,4-dimethyl-7-(2-oxo-1,3-oxazolidin-3-yl)-4,5-dihydro-3H-2,3-benzodiazepine-3-carboxamide] | 240 nM | 230 nM |
| CNC(=O)N1N=C(c2ccc(N3CCS(=O)(=O)CC3)cc2)c2cc(OC)c(OC)cc2C[C@@H]1C [Example 136, (4S)-1-[4-(1,1-dioxidothiomorpholin-4-yl)phenyl]-7,8-dimethoxy-N,4-dimethyl-4,5-dihydro-3H-2,3-benzodiazepine-3-carboxamide] | 20 nM | 200 nM |
| CNC(=O)N1N=C(c2ccc(N3CCCN(C)CC3=O)cc2)c2cc(OC)c(OC)cc2CC1C (racemic) [Example 37, (±)-7,8-dimethoxy-N,4-dimethyl-1-[4-(4-methyl-2-oxo-1,4-diazepan-1-yl)phenyl]-4,5-dihydro-3H-2,3-benzodiazepine-3-carboxamide] | 120 nM | 1130 nM |
| CNC(=O)N1N=C(c2ccc(Cl)cc2)c2cc(OCCCN3CCN(C)CC3)ccc2CC1C (racemic) [Example 164, (±)-1-(4-chlorophenyl)-N,4-dimethyl-8-[3-(4-methylpiperazin-1-yl)propoxy]-4,5-dihydro-3H-2,3-benzodiazepine-3-carboxamide] | 60 nM | 580 nM |
| CNC(=O)N1N=C(c2ccc(-c3cccc(OC)c3)cc2)c2cc(OC)c(OC)cc2CC1C (racemic) [Example 87, (±)-7,8-dimethoxy-1-(3′-methoxybiphenyl-4-yl)-N,4-dimethyl-4,5-dihydro-3H-2,3-benzodiazepine-3-carboxamide] | 110 nM | 560 nM |
| CNC(=O)N1N=C(c2ccc(N3CCOCC3)cc2)c2cc(NC(C)=O)ccc2CC1C (racemic) [Example 171, (±)-8-Acetamido-N,4-dimethyl-1-[4-(morpholin-4-yl)phenyl]-4,5-dihydro-3H-2,3-benzodiazepine-3-carboxamide] | 120 nM | 1910 nM |
| CNC(=O)N1N=C(c2ccc(N3CCN(Cc4ccccc4)CC3=O)cc2)c2cc(OC)c(OC)cc2CC1C (racemic) [Example 36, (±)-1-[4-(4-benzyl-2-oxopiperazin-1-yl)phenyl]-7,8-dimethoxy-N,4-dimethyl-4,5-dihydro-3H-2,3-benzodiazepine-3-carboxamide] | 260 nM | 1160 nM |
| CNC(=O)N1N=C(c2ccc(-c3cnn(C)c3)cc2)c2cc(OC)ccc2C[C@@H]1C [Example 21, (4S)-8-methoxy-N,4-dimethyl-1-[4-(1-methyl-1H-pyrazol-4-yl)phenyl]-4,5-dihydro-3H-2,3-benzodiazepine-3-carboxamide] | 130 nM | 560 nM |
| CCC1Cc2cc(OC)c(OC)cc2C(c2ccc(-c3cn(C)nn3)cc2)=NN1C(=O)NC (racemic) [Example 222, (±)-4-ethyl-7,8-dimethoxy-N-methyl-1-[4-(1-methyl-1H-1,2,3-triazol-4-yl)phenyl]-4,5-dihydro-3H-2,3-benzodiazepine-3-carboxamide] | 960 nM | 2120 nM |
| CNC(=O)N1N=C(c2ccc(F)c(N3CCOCC3)c2)c2cc(OC)c(OC)cc2CC1C (racemic) [Example 144, (±)-1-[4-fluoro-3-(morpholin-4-yl)phenyl]-7,8-dimethoxy-N,4-dimethyl-4,5-dihydro-3H-2,3-benzodiazepine-3-carboxamide] | 190 nM | 960 nM |
| CNC(=O)N1N=C(c2ccc(N3CCC(OC)CC3)cc2)c2cc(OC)c(OC)cc2CC1C (racemic) [Example 179, (±)-7,8-dimethoxy-1-[4-(4-methoxypiperidin-1-yl)phenyl]-N,4-dimethyl-4,5-dihydro-3H-2,3-benzodiazepine-3-carboxamide] | 70 nM | 290 nM |

Further lines, results first:

| IC50 [1] | IC50 [2] | Compound |
| --- | --- | --- |
| 960 nM | 5140 nM | CNC(=O)N1N=C(c2ccc(-c3sc(C)nc3C)cc2)c2cc(OC)c(OC)cc2C[C@@H]1C (single isomer, unassigned) [Example 46.1] |
| 60 nM | 50 nM | CNC(=O)N1N=C(c2ccc(N3CCC(N(C)C)CC3)cc2)c2cc(OC)c(OC)cc2C[C@@H]1C [Example 180.2, (4S)-1-{4-[4-(dimethylamino)piperidin-1-yl]phenyl}-7,8-dimethoxy-N,4-dimethyl-4,5-dihydro-3H-2,3-benzodiazepine-3-carboxamide] |
| 8800 nM | > 10000 nM | CNC(=O)N1N=C(c2ccc(N3CCN(C)CC3)cc2)c2cc(OC)c(OC)cc2C[C@H]1C [Example 127.2, (4R)-7,8-dimethoxy-N,4-dimethyl-1-[4-(4-methylpiperazin-1-yl)phenyl]-4,5-dihydro-3H-2,3-benzodiazepine-3-carboxamide] |
| 40 nM | 250 nM | CNC(=O)N1N=C(c2ccc(-c3c(C)noc3C)cc2)c2cc(N3CCOCC3)ccc2C[C@@H]1C [Example 176.2, (4S)-1-[4-(3,5-Dimethylisoxazol-4-yl)phenyl]-N,4-dimethyl-8-(morpholin-4-yl)-4,5-dihydro-3H-2,3-benzodiazepine-3-carboxamide] |
| 560 nM | 1680 nM | CNC(=O)N1N=C(c2ccc(-c3c(C)noc3C)cc2)c2cc(OC)c(OC(F)F)cc2C[C@H]1C [Example 162.2, (4R)-7-(difluoromethoxy)-1-[4-(3,5-dimethylisoxazol-4-yl)phenyl]-8-methoxy-N,4-dimethyl-4,5-dihydro-3H-2,3-benzodiazepine-3-carboxamide] |
| 30 nM | 80 nM | CNC(=O)N1N=C(c2ccc(N3CCN(C(=O)C(C)(C)O)CC3)cc2)c2cc(OC)c(OC)cc2C[C@@H]1C [Example 134.1, (4S)-1-{4-[4-(2-hydroxy-2-methylpropanoyl)piperazin-1-yl]phenyl}-7,8-dimethoxy-N,4-dimethyl-4,5-dihydro-3H-2,3-benzodiazepine-3-carboxamide] |
| 640 nM | 580 nM | CC[C@H]1Cc2cc(OC)c(OC)cc2C(c2ccc(N3CCNCC3)cc2)=NN1C(=O)NC [Example 202.1, (4S)-4-ethyl-7,8-dimethoxy-N-methyl-1-[4-(piperazin-1-yl)phenyl]-4,5-dihydro-3H-2,3-benzodiazepine-3-carboxamide] |
